Some test systems named below: CCRF-CEM leukemia; COLO 205 colon; DU-145 prostate; HOP-62 NSCLC; MDA-MB-231 breast; NCI-H226 lung; NCI/ADR-RES ovarian; OVCAR-3 ovarian; SK-MEL-28 melanoma; T-47D breast.
Holding throughout (assay): inhibition of tumour cell growth, NCI panel, 48 h

Where “and” joins values, the source holds several entries; their conditions need not be identical. Equal entries are not always repeated.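 Protocol summary: plate cells (96-well), add compound at 5 concentrations, incubate 48 h, interpolate endpoints linearly. GI50 = concentration required for 50% inhibition of growth. TGI marks complete inhibition of growth.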

The values that follow come from PubChem BioAssay (NCI).

`COc1cc(C(=O)c2c(-c3ccccc3)oc3c(OC)cccc23)cc(OC)c1OC`: the GI50 was 0.0532 µM with CCRF-CEM leukemia; 0.123 µM with COLO 205 colon; 0.125 µM with DU-145 prostate; 0.071 µM in the experiment on HOP-62 NSCLC; 0.203 µM with MDA-MB-231 breast; 0.236 µM with NCI-H226 lung. Besides, the GI50 was 0.0409 µM with NCI/ADR-RES ovarian, 0.0346 µM in the experiment with OVCAR-3 ovarian, 13.8 µM in the experiment with SK-MEL-28 melanoma and 31.8 µM in the experiment with T-47D breast. In addition, the TGI with CCRF-CEM leukemia was above 100 µM; in the experiment with COLO 205 colon, 0.485 µM; in the experiment on DU-145 prostate, above 65.6 µM; in the experiment with HOP-62 NSCLC, 47 µM; with MDA-MB-231 breast it was 2 µM; with OVCAR-3 ovarian, 0.363 µM. The TGI in the experiment with SK-MEL-28 melanoma and with T-47D breast was above 100 µM each time.
In the case of `Cc1[nH]c2ccccc2c1CCCO`, the GI50 with CCRF-CEM leukemia, with COLO 205 colon, in the experiment on DU-145 prostate, in the experiment with HOP-62 NSCLC, in the experiment on MDA-MB-231 breast and with NCI-H226 lung was above 100 µM throughout. In addition, the GI50 with NCI/ADR-RES ovarian, in the experiment with OVCAR-3 ovarian, in the experiment on SK-MEL-28 melanoma and in the experiment on T-47D breast was above 100 µM in each case. Also, the TGI in the experiment with CCRF-CEM leukemia, in the experiment on COLO 205 colon, in the experiment on DU-145 prostate, with HOP-62 NSCLC, in the experiment on MDA-MB-231 breast and in the experiment with NCI-H226 lung was above 100 µM throughout. For the same compound, the TGI in the experiment on NCI/ADR-RES ovarian, in the experiment on OVCAR-3 ovarian, with SK-MEL-28 melanoma and in the experiment with T-47D breast was above 100 µM each time.
In the case of `COC(=O)C1(Cc2ccc3c(c2)CCC3)Cc2ccccc2C1O` (configuration not stated), the TGI with CCRF-CEM leukemia was 47.5 µM; in the experiment on COLO 205 colon, 33.8 µM; in the experiment with DU-145 prostate, above 100 µM; with HOP-62 NSCLC, 46.3 µM; in the experiment on MDA-MB-231 breast it was 67.4 µM; in the experiment with NCI-H226 lung, 36.6 µM. Also, the TGI with NCI/ADR-RES ovarian is 60.1 µM; with OVCAR-3 ovarian it was 36.8 µM; in the experiment on SK-MEL-28 melanoma it was 33 µM; with T-47D breast, above 100 µM.
As to `O=C1/C(=C/c2ccccc2)CN(C(=O)CCN2CCOCC2)C/C1=C\c1ccccc1`, the TGI with CCRF-CEM leukemia worked out at 9.81 µM; with COLO 205 colon, 7.67 µM; in the experiment with DU-145 prostate it was 29.5 µM; in the experiment on HOP-62 NSCLC it was 17.3 µM; in the experiment on MDA-MB-231 breast, 9.78 µM; in the experiment with NCI-H226 lung it was 15 µM. For the same compound, the TGI was 9.46 µM with NCI/ADR-RES ovarian, 11.5 µM in the experiment with OVCAR-3 ovarian, 3.41 µM in the experiment with SK-MEL-28 melanoma and 7.35 µM with T-47D breast.
For `CSC1=C(N)C(=O)c2[nH]cc(CO)c2C1=N`, the GI50 in the experiment on CCRF-CEM leukemia is 0.223 µM; with COLO 205 colon, 0.0755 µM; with DU-145 prostate, 0.166 µM; in the experiment with HOP-62 NSCLC, 0.193 µM; with MDA-MB-231 breast, 0.236 µM; with NCI-H226 lung, 0.206 µM. Also, the GI50 is 0.239 µM with NCI/ADR-RES ovarian, 0.134 µM in the experiment with OVCAR-3 ovarian, 0.267 µM in the experiment on SK-MEL-28 melanoma and 0.264 µM in the experiment on T-47D breast. Also, the TGI was 0.762 µM in the experiment on CCRF-CEM leukemia; 0.222 µM in the experiment on COLO 205 colon; 0.308 µM in the experiment on DU-145 prostate; 0.342 µM with HOP-62 NSCLC; 0.669 µM in the experiment on MDA-MB-231 breast; 0.45 µM in the experiment on NCI-H226 lung. In addition, the TGI in the experiment with NCI/ADR-RES ovarian amounted to 0.781 µM; in the experiment with OVCAR-3 ovarian it was 0.346 µM; in the experiment with SK-MEL-28 melanoma it was 0.618 µM; with T-47D breast, 0.644 µM.
Turning to `COc1ccc(C/C(C)=C(/c2ccc(OCCN3CCCCC3)cc2)c2ccc(OC(=O)NCc3ccccc3)cc2)cc1`, the GI50 was 0.523 µM with CCRF-CEM leukemia; 0.437 µM with COLO 205 colon; 0.442 µM in the experiment on DU-145 prostate; 0.419 µM with HOP-62 NSCLC; 0.44 µM in the experiment on MDA-MB-231 breast; 0.441 µM with NCI-H226 lung. Also, the GI50 was 0.443 µM in the experiment on NCI/ADR-RES ovarian, 0.413 µM in the experiment on OVCAR-3 ovarian, 0.44 µM in the experiment on SK-MEL-28 melanoma and 0.303 µM with T-47D breast. In addition, the TGI in the experiment on CCRF-CEM leukemia amounted to 1.55 µM; in the experiment on COLO 205 colon it was 0.9 µM; in the experiment on DU-145 prostate it was 0.805 µM; in the experiment on HOP-62 NSCLC, 0.825 µM; in the experiment with MDA-MB-231 breast, 0.81 µM; with NCI-H226 lung, 0.868 µM. The TGI with NCI/ADR-RES ovarian worked out at 0.893 µM; in the experiment on OVCAR-3 ovarian, 0.762 µM; with SK-MEL-28 melanoma, 0.818 µM; in the experiment with T-47D breast, 0.746 µM.
`COc1cccc(-c2c[nH]c3c(N/N=C/c4ccncc4)ncnc23)c1`: the GI50 in the experiment with CCRF-CEM leukemia was 1.93 µM; in the experiment with COLO 205 colon, 1.2 µM; in the experiment on DU-145 prostate, 2.23 µM; in the experiment with HOP-62 NSCLC, 3.74 µM; in the experiment on MDA-MB-231 breast, 3.83 µM; in the experiment with NCI-H226 lung, 1.75 µM. Besides, the GI50 in the experiment on NCI/ADR-RES ovarian was 4.54 µM; with OVCAR-3 ovarian it was 1.12 µM; with SK-MEL-28 melanoma it was 3.42 µM; in the experiment with T-47D breast, 3.07 µM. Also, the TGI is above 25 µM in the experiment with CCRF-CEM leukemia; 4.39 µM in the experiment with COLO 205 colon; above 15.2 µM in the experiment with DU-145 prostate; above 15.3 µM in the experiment with HOP-62 NSCLC; above 22.9 µM in the experiment with MDA-MB-231 breast; above 16 µM in the experiment on NCI-H226 lung. Further, the TGI in the experiment with NCI/ADR-RES ovarian is above 19.3 µM; with OVCAR-3 ovarian, 6.26 µM; in the experiment on SK-MEL-28 melanoma, above 16 µM; with T-47D breast, above 15.5 µM.
`COc1ccc2c(c1)NC1=C(C(=O)OC1)C2c1cc(OC)c2c(c1)OCO2` (configuration not stated): the GI50 is below 0.0187 µM in the experiment with CCRF-CEM leukemia; below 0.0135 µM with COLO 205 colon; 0.0218 µM in the experiment with DU-145 prostate; 0.0225 µM with HOP-62 NSCLC; 0.0342 µM with MDA-MB-231 breast; below 0.0153 µM in the experiment with NCI-H226 lung. Moreover, the GI50 is below 0.0165 µM in the experiment with NCI/ADR-RES ovarian, below 0.0149 µM in the experiment with OVCAR-3 ovarian and above 100 µM with T-47D breast. Further, the TGI in the experiment with CCRF-CEM leukemia was above 100 µM; with COLO 205 colon it was 0.0305 µM; with DU-145 prostate, 0.066 µM; with HOP-62 NSCLC it was 70.8 µM; in the experiment on MDA-MB-231 breast it was above 100 µM; with OVCAR-3 ovarian, 0.0241 µM. Further, the TGI in the experiment with SK-MEL-28 melanoma and with T-47D breast was above 100 µM throughout.
Turning to `Cc1cc2c(cc1Cl)SC1=NN(C)C(C)N1S2(=O)=O` (configuration not stated), the GI50 with CCRF-CEM leukemia, in the experiment on COLO 205 colon, in the experiment with DU-145 prostate, with HOP-62 NSCLC, in the experiment on MDA-MB-231 breast and in the experiment with NCI-H226 lung was above 100 µM throughout. For the same compound, the GI50 in the experiment on NCI/ADR-RES ovarian was above 100 µM; in the experiment on OVCAR-3 ovarian it was above 100 µM; with SK-MEL-28 melanoma it was above 100 µM; in the experiment on T-47D breast it was 95.8 µM. Besides, the TGI with CCRF-CEM leukemia, in the experiment on COLO 205 colon, with DU-145 prostate, with HOP-62 NSCLC, with MDA-MB-231 breast and in the experiment with NCI-H226 lung was above 100 µM in each case. Further, the TGI with NCI/ADR-RES ovarian, with OVCAR-3 ovarian, in the experiment on SK-MEL-28 melanoma and with T-47D breast was above 100 µM each time.
Turning to `Cc1cccc(/C=N/NC(=S)N2CCCC2)n1`, the GI50 in the experiment on CCRF-CEM leukemia is 0.0659 µM; in the experiment with COLO 205 colon, 0.193 µM; in the experiment on DU-145 prostate, 0.98 µM; in the experiment on HOP-62 NSCLC, 2.17 µM; in the experiment on MDA-MB-231 breast, 1.14 µM; in the experiment on NCI-H226 lung, 0.266 µM. The GI50 in the experiment with NCI/ADR-RES ovarian was 0.319 µM; in the experiment with OVCAR-3 ovarian, 0.28 µM; with SK-MEL-28 melanoma, 1.42 µM; in the experiment with T-47D breast it was 0.267 µM. Further, the TGI is 0.85 µM in the experiment on CCRF-CEM leukemia; 0.942 µM with HOP-62 NSCLC; 7.73 µM and 0.83 µM in the experiment with NCI-H226 lung; 6.93 µM and 4.89 µM with NCI/ADR-RES ovarian; 0.843 µM and 0.0848 µM in the experiment with OVCAR-3 ovarian; above 100 µM in the experiment with SK-MEL-28 melanoma. Further, the TGI in the experiment with T-47D breast worked out at 7.68 µM.
Take `O=C1NC(Nc2ccccc2)=NC(C(F)(F)F)(C(F)(F)F)N1`: the TGI in the experiment on CCRF-CEM leukemia, in the experiment with COLO 205 colon, in the experiment with DU-145 prostate, in the experiment with HOP-62 NSCLC, in the experiment with MDA-MB-231 breast and in the experiment with NCI-H226 lung was above 100 µM each time. The TGI in the experiment on NCI/ADR-RES ovarian, in the experiment on OVCAR-3 ovarian, with SK-MEL-28 melanoma and in the experiment on T-47D breast was above 100 µM throughout.
As to `O=C1CCCCCCCCCCC1CN1CCCC1` (configuration not stated), the TGI in the experiment with CCRF-CEM leukemia was above 100 µM; with COLO 205 colon, 51.9 µM; in the experiment on DU-145 prostate, above 100 µM; in the experiment on HOP-62 NSCLC, 34.7 µM; with MDA-MB-231 breast, above 100 µM; in the experiment on NCI-H226 lung, above 100 µM. Moreover, the TGI with NCI/ADR-RES ovarian is above 100 µM; in the experiment with OVCAR-3 ovarian it was above 100 µM; with SK-MEL-28 melanoma, 55.6 µM; in the experiment on T-47D breast, above 100 µM.
Consider `Cn1ncnc1[C@H]1c2n[nH]c(=O)c3cc(F)cc(c23)N[C@@H]1c1ccc(F)cc1`, for which the GI50 in the experiment on CCRF-CEM leukemia is 1.27 µM; in the experiment with COLO 205 colon, above 100 µM; in the experiment on DU-145 prostate, 3.59 µM; with HOP-62 NSCLC, 5.81 µM; in the experiment with MDA-MB-231 breast, above 100 µM; with NCI-H226 lung, above 100 µM. The GI50 in the experiment with NCI/ADR-RES ovarian, with OVCAR-3 ovarian, with SK-MEL-28 melanoma and with T-47D breast was above 100 µM throughout. Also, the TGI with CCRF-CEM leukemia, in the experiment with COLO 205 colon, in the experiment on DU-145 prostate, in the experiment on HOP-62 NSCLC, with MDA-MB-231 breast and with NCI-H226 lung was above 100 µM throughout. In addition, the TGI with NCI/ADR-RES ovarian, in the experiment with OVCAR-3 ovarian, in the experiment with SK-MEL-28 melanoma and with T-47D breast was above 100 µM in each case.
